Assay results reported in PubChem BioAssay AID1963833 (Molecular Pharmacology Branch, DTP, NCI, 2024).
pIC50: −log10 of the molar value.

Tested on: 883617-216-R-J1-PDC complex spheroid viability
Experiment: Anticancer human tumor 883617-216-R-J1-PDC patient-derived bladder carcinoma cell line growth inhibition [POLQ]
Conditions: for pIC50: curve of first compound; for viability, T/C: stronger effect = lower value
Procedure, shortened: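 PDC + HUVEC + MSC complex spheroids; POLQ inhibitors ± partner drugs; top conc. at/near clinical Cmax, else 10 microM (SN-38 1 microM), half-log dilutions; 37 degrees C, 5% CO2.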
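Further: spheroids exposed to compounds for seven days before readout.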
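Wherever viability, T/C is given: 100% = DMSO vehicle control viability.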

O=c1[nH]cc(F)c(=O)[nH]1 + COC1C(OC(N)=O)C(O)C(Oc2ccc3c(O)c(NC(=O)c4ccc(O)c(CC=C(C)C)c4)c(=O)oc3c2C)OC1(C)C
pIC50 (second compound 0.0316 µM): < 5.00
pIC50 (second compound 0.1 µM): < 5.00
pIC50 (second compound 0.316 µM): < 5.00
pIC50 (second compound 1 µM): < 5.00
pIC50 (second compound 3.16 µM): < 5.00
pIC50 (second compound 10 µM): < 5.00
viability, T/C (second compound 0.0316 µM, first compound 0.0316 µM): 106%
viability, T/C (second compound 0.0316 µM, first compound 0.1 µM): 96.4%
viability, T/C (second compound 0.0316 µM, first compound 0.316 µM): 104%
viability, T/C (second compound 0.0316 µM, first compound 1 µM): 105%
viability, T/C (second compound 0.0316 µM, first compound 3.16 µM): 76.7%
viability, T/C (second compound 0.0316 µM, first compound 10 µM): 59.8%
viability, T/C (second compound 0.1 µM, first compound 0.0316 µM): 103%
viability, T/C (second compound 0.1 µM, first compound 0.1 µM): 105%
viability, T/C (second compound 0.1 µM, first compound 0.316 µM): 99.4%
viability, T/C (second compound 0.1 µM, first compound 1 µM): 94.6%
viability, T/C (second compound 0.1 µM, first compound 3.16 µM): 70.9%
viability, T/C (second compound 0.1 µM, first compound 10 µM): 60.9%
viability, T/C (second compound 0.316 µM, first compound 0.0316 µM): 88.2%
viability, T/C (second compound 0.316 µM, first compound 0.1 µM): 99.6%
viability, T/C (second compound 0.316 µM, first compound 0.316 µM): 92.2%
viability, T/C (second compound 0.316 µM, first compound 1 µM): 93%
viability, T/C (second compound 0.316 µM, first compound 3.16 µM): 84.4%
viability, T/C (second compound 0.316 µM, first compound 10 µM): 63.5%
viability, T/C (second compound 1 µM, first compound 0.0316 µM): 104%
viability, T/C (second compound 1 µM, first compound 0.1 µM): 94.2%
viability, T/C (second compound 1 µM, first compound 0.316 µM): 117%
viability, T/C (second compound 1 µM, first compound 1 µM): 80.2%
viability, T/C (second compound 1 µM, first compound 3.16 µM): 78%
viability, T/C (second compound 1 µM, first compound 10 µM): 69%
viability, T/C (second compound 3.16 µM, first compound 0.0316 µM): 112%
viability, T/C (second compound 3.16 µM, first compound 0.1 µM): 92.8%
viability, T/C (second compound 3.16 µM, first compound 0.316 µM): 95.5%
viability, T/C (second compound 3.16 µM, first compound 1 µM): 91.7%
viability, T/C (second compound 3.16 µM, first compound 3.16 µM): 84.9%
viability, T/C (second compound 3.16 µM, first compound 10 µM): 65.4%
viability, T/C (second compound 10 µM, first compound 0.0316 µM): 95.2%
viability, T/C (second compound 10 µM, first compound 0.1 µM): 99.6%
viability, T/C (second compound 10 µM, first compound 0.316 µM): 99.7%
viability, T/C (second compound 10 µM, first compound 1 µM): 85.3%
viability, T/C (second compound 10 µM, first compound 3.16 µM): 81.4%
viability, T/C (second compound 10 µM, first compound 10 µM): 78.2%
